We go through 19 molecules from patent US9586914B2, “Modulators of C3a receptors” (THE UNIVERSITY OF QUEENSLAND, priority 2011, dated 2017).

The target in one test is T1, C3aR (Homo sapiens, UniProt Q16581).
T1 construct: peripheral blood mononuclear cells were isolated from buffy coat (obtained from Australian Red Cross Blood Service, Kelvin Grove); endogenous in cells; host or cells: primary human monocyte-derived macrophages (HMDM) differentiated from CD14+ monocytes of donor buffy coat
T1 sequence (Q16581 1-482): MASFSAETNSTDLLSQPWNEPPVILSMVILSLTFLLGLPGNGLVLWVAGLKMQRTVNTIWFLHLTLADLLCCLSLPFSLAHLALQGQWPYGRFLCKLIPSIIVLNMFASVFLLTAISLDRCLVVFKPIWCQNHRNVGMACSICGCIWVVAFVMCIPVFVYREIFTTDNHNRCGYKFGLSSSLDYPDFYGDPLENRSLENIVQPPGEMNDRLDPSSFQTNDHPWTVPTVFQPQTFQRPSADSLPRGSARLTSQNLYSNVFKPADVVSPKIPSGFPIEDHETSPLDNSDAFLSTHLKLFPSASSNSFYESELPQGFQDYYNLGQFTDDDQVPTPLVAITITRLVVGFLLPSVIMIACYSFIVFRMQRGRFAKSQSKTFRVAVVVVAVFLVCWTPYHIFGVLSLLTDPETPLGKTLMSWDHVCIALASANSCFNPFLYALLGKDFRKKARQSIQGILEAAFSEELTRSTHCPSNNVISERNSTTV
In words: Calcium mobilization assay in HMDM (agonist/antagonist activity). The class given is cell-based. Conditions: for Emax at 10 µM: read-out: % agonist. How it is done: Harvested HMDM cells were washed with 0.9% NaCl solution by centrifugation at 2500 rpm for 5 min, followed by resuspension of the cell pellet with complete media. Cells were seeded at 5×10^4 cells/well in a 96-well black-wall, clear bottom plate (DKSH, Zurich), and left overnight to adhere at 37° C. On the day of the experiment, supernatant was removed and cells were incubated in dye loading buffer (Hank's Balanced Salt Solution (HBSS) with 4 μM Fluo-3, 25 μL pluronic acid, 1% fetal bovine serum (FBS) and 2.5 mM probenecid) for one hour at 37° C. Cells were then washed twice with HBSS and transferred to a Fluorostar spectrofluorimeter (BMG, Durham N.C.) for oxazole compound injection and fluorescence measurements.
Various compounds were examined in the calcium mobilization assay for agonist or antagonist activity compared to hC3a and to the known antagonist SB290157.
HMDMs were seeded into black-wall, clear bottom 96-well plates (Corning Incorporated, NY) at 50,000 cells/well and left to incubate at 37° C. with 5% CO2 overnight for cells to adhere. The medium was removed before being washed with the assay buffer (1×HBSS, 20 mM HEPES, 2.5 mM probenecid, pH 7.4). To each well was added 100 μL of dye-loading buffer made up of 12 mL calcium buffer, 1% FBS, 25 μL of Fluo-3 dye (final concentration of 4 μM) and 25 μL of 20% pluronic acid. The plate was covered in aluminium foil to protect the light-sensitive dye and left to incubate at 37° C. for 1 h. The dye-loading buffer was removed before the cells were washed with the assay buffer to remove excess loading dye. To each well was added 50 μL of fresh assay buffer before the plate was loaded into a FLIPR (Fluorescent Imaging Plate Reader) that can inject treatments and measure any calcium release. To generate agonist plots, calcium release was monitored for 300 seconds. To generate antagonist plots, calcium release was recorded for 900 seconds, which at the same time would allow incubation for the antagonists. After the initial incubation period, an agonist would be added and the response was recorded for 300 seconds. Intracellular release of calcium was recorded via fluorescence measurements at wavelength of 485 nm for excitation and 520 nm for emission.
In general terms: Calcium assays in cells follow changes in intracellular calcium, usually with a dye or a luminescent sensor.

The target of a further test is T2, C3a receptor (C3aR) (Homo sapiens, UniProt Q16581).
T2 construct: peripheral blood mononuclear cells were isolated from buffy coat (obtained from Australian Red Cross Blood Service, Kelvin Grove); endogenous in cells; host or cells: primary human monocyte-derived macrophages (HMDM) differentiated from CD14+ monocytes of donor buffy coat
T2 sequence (Q16581 1-482): T1 sequence (Q16581 1-482)
The test can be described thus: Competitive binding with [^125I]-C3a in HMDM. Conditions: for remaining activity at 20 µM: 1 h, read-out: %[^125I]-C3a binding. From the text:
For HMDM, peripheral blood mononuclear cells were isolated from buffy coat (obtained from Australian Red Cross Blood Service, Kelvin Grove) using Ficoll-paque density centrifugation (GE Healthcare Bio-Science, Uppsala, Sweden). CD^14+ monocytes were positively selected using CD^14+ MACS magnetic beads (Miltenyi Biotech, Auburn, Calif., USA). […] Cells were harvested by gentle scraping in saline solution and replated for use on Day 7. […] Unbound radioactivity was removed by filtration through glass microfiber filters GF/B (Whatman Iner. […] The filter was washed 3 times with cold buffer (50 mM Tris-HCl) pH 7.4. […] The −log IC50 for each compound was calculated for separate experiments and express as an arithmetic mean standard error (SE). IC50 values were expressed as a geometric mean.

Where [1] appears, read: Table 10, HMDM, read-out: Antagonist Activity Ca^2+ IC50.
The mark [2] stands for this setting: Table 8, HMDM, read-out: Receptor Binding Affinity ^125I IC50.
[3] abbreviates: Table 9, Ca^2+ mobilization, HMDM, read-out: EC50.
The mark [4] stands for this setting: Table 6, competitive binding with [^125I]-C3a, HMDM, read-out: IC50 (converted).
[5] abbreviates: Table 13, calcium release from HMDM, read-out: Antagonist Activity IC50.
Where [6] appears, read: Table 14, binding affinity for C3aR on HMDM.
Setting [7] is: Table 12, read-out: Apparent Agonist Activity EC50.
Setting [8] is: Table 6, competitive binding with [^125I]-C3a, HMDM, read-out: pIC50 ± SEM (converted).
Setting [9] is: Table 12, read-out: Receptor Binding Affinity IC50.

SMILES strings stand for the structures. Like-named read-outs stand apart in the source and are kept apart here.

As for `N=C(N)NCCC[C@H](NC(=O)c1oc(C(c2ccccc2)c2ccccc2)nc1-c1ccccc1)C(=O)O` [Compound 66, 2-Diphenylmethyl-4-phenyl oxazole-5-carboxyl-Arg-OH], the results for the IC50 at C3aR (setting [1]) and at C3a receptor (C3aR) (setting [2]) were 2000 nM and 123 nM, respectively.

A word on the EC50: it is the concentration needed to bring the measured effect to its halfway point. As for `CC(C)C[C@H](NC(=O)OC(C)(C)C)c1nc(C(=O)N[C@@H](CCONC(=N)N)C(=O)O)co1` [Compound 91, (S)-2-(2-((S)-1-((tert-butoxycarbonyl)amino)-3-methylbutyl)oxazole-4-carboxamido)-4-(guanidinooxy)butanoic acid], the EC50 on C3aR (setting [3]) turned out to be 370 nM. Moreover, at C3a receptor (C3aR) (setting [4]), the IC50 is 93 nM.

As to `COc1ccc(OC)c(CC(=O)N[C@@H](CC(C)C)c2nc(C(=O)N[C@@H](CCCNC(=N)N)C(=O)O)c(C)o2)c1` [Compound 44, 2,5-Dimethoxy-phenyl acetic acid-Leucine-5-Methyl-Oxazole-Arginine], the Emax at 10 µM on C3aR was found to be 69%. Moreover, the remaining activity at 20 µM on C3a receptor (C3aR) was 42%.

Regarding `N#CN=C(N)NCCC[C@H](NC(=O)c1ccc(C(c2ccccc2)c2ccccc2)s1)C(=O)O` [Compound 95, (S)-2-(5-benzhydrylthiophene-2-carboxamido)-5-(2-cyanoguanidino)pentanoic acid], the IC50 on C3aR (setting [5]) is 900 nM; at C3a receptor (C3aR) (setting [4]), 853 nM.

For `COc1ccccc1CC(=O)N[C@@H](CC(C)C)c1nc(C(=O)N[C@@H](CCCNC(=N)N)C(=O)O)c(C)o1` [Compound 37, 2-Methoxy-phenylacetic acid-Leucine-5-Methyl-Oxazole-Arginine], the Emax at 10 µM on C3aR came out at 81%. On C3a receptor (C3aR), the remaining activity at 20 µM stood at 43%.

As to `N=C(N)NCCC[C@H](NC(=O)c1nnc(C(c2ccccc2)c2ccccc2)o1)C(=O)O` [Compound 69, 2-Diphenylmethyl-1-oxa-3,4-diazole-5-carboxyl-Arginine-OH], the IC50 at C3aR (setting [1]) was 24000 nM; at C3a receptor (C3aR) (setting [2]), 2580 nM.

For the molecule `CC(C)C[C@H](NC(=O)OC(C)(C)C)c1nc(C(=O)N[C@@H](CCCNC(=N)N)C(=O)NS(=O)(=O)c2ccccc2)co1` [Compound 92, tert-butyl ((S)-1-(4-(((S)-5-guanidino-1-oxo-1-(phenylsulfonamido)pentan-2-yl)carbamoyl)oxazol-2-yl)-3-methylbutyl)carbamate], the IC50 on C3aR (setting [5]) is 1300 nM; at C3a receptor (C3aR) (setting [4]), 7.5 nM.

As to `Cc1oc([C@H](CC(C)C)NC(=O)Cc2ccc(C(F)(F)F)cc2)nc1C(=O)N[C@@H](CCCNC(=N)N)C(=O)O` [Compound 36, 4-(Trifluoromethyl)-phenylacetic acid-Leucine-5-Methyl-Oxazole-Arginine], the Emax at 10 µM on C3aR is 50%. Further, at C3a receptor (C3aR), the remaining activity at 20 µM was 61%.

For the molecule `N=C(N)NCCC[C@H](NC(=O)c1nc(C(c2ccccc2)c2ccccc2)no1)C(=O)O` [Compound 67, 3-Diphenylmethyl-1-oxa-2,4-diazole-5-carboxyl-Arginine-OH], the IC50 at C3aR (setting [1]) was determined as 1300 nM; on C3a receptor (C3aR) (setting [2]), 11 nM. Further, the “-Log IC50” value on C3a receptor (C3aR) (setting [6]) came to 7.9.

As for `Cc1nc(C(c2ccccc2)c2ccccc2)sc1C(=O)N[C@@H](CCCNC(=N)N)C(=O)O` [Compound 59, 2-Diphenylmethyl-4-methyl thiazole-5-carboxyl-Arg-OH], the EC50 on C3aR (setting [3]) and on C3aR (setting [7]) was 74800 nM throughout. The IC50 on C3aR (setting [1]) is 1000 nM; at C3a receptor (C3aR) (setting [4]), 38 nM; at C3a receptor (C3aR) (setting [8]), 91.2 nM; at C3a receptor (C3aR) (setting [2]) it was 38 nM; on C3a receptor (C3aR) (setting [9]), 91 nM; at C3a receptor (C3aR) (Table 14, binding affinity for C3aR on HMDM, read-out: -Log IC50 (converted)) it was 12.6 nM.

Turning to `N=C(N)NCCC[C@H](NC(=O)c1coc(C(c2ccccc2)c2ccccc2)n1)C(=O)O` [Compound 56, 2-Diphenylmethyl-oxazole-4-carboxyl-Arg-OH], the EC50 on C3aR (setting [3]) and on C3aR (setting [7]) was 6.6 nM throughout. Besides, the “Agonist Activity (in words)” value on C3aR (Table 10, HMDM) was “partial agonist”. The IC50 at C3aR (setting [1]) was 20 nM; on C3a receptor (C3aR) (setting [4]), 37 nM; at C3a receptor (C3aR) (setting [8]), 37.2 nM; at C3a receptor (C3aR) (setting [2]), 1 nM; on C3a receptor (C3aR) (Table 12, read-out: Receptor Binding Affinity pIC50 ± SE (converted)), 37.2 nM.

As to `COc1ccc(CC(=O)N[C@@H](CC(C)C)c2nc(C(=O)N[C@@H](CCCNC(=N)N)C(=O)O)c(C)o2)cc1OC` [Compound 43, 3,4-Dimethoxy-phenyl acetic acid-Leucine-5-Methyl-Oxazole-Arginine], the Emax at 10 µM at C3aR was determined as 67%. Further, the remaining activity at 20 µM at C3a receptor (C3aR) came to 65%.

`Cc1nc(C(c2ccccc2)c2ccccc2)n(C)c1C(=O)N[C@@H](CCCNC(=N)N)C(=O)O` [Compound 98, 2-Benzhydryl-1,4-Dimethyl imidazole-5-carboxyl-Arginine]: the concentration for a half-maximal effect (EC50) on C3aR (setting [3]) is 40 nM. On C3a receptor (C3aR) (setting [4]), the IC50 was 31 nM.

In the case of `Cc1[nH]c([C@H](CC(C)C)NC(=O)OC(C)(C)C)nc1C(=O)N[C@@H](CCCNC(=N)N)C(=O)O` [Compound 80, Boc-Leucine-imidazole-Arginine-OH], the EC50 on C3aR (setting [3]) was 120 nM. In addition, the IC50 on C3a receptor (C3aR) (setting [4]) was 38 nM.

Consider `CC[C@H](C)[C@H](NC(=O)C(c1ccccc1)c1ccccc1)c1nc(C(=O)N[C@@H](CCCNC(=N)N)C(=O)O)co1` [Compound 7, Diphenyl Acetic Acid Isoleucine Oxazole Arginine], for which the “pEC50 ± SEM” value on C3aR (Table 9, Ca^2+ mobilization, HMDM) came to 5.25 ± 0.31. The EC50 on C3aR (setting [3]) worked out at 5600 nM. For the same molecule, the “pIC50 ± SEM” value at C3a receptor (C3aR) (Table 6, competitive binding with [^125I]-C3a, HMDM) is 6.86 ± 0.08. At C3a receptor (C3aR) (setting [4]), the IC50 is 137 nM.

Take `Cc1nc(C(c2ccccc2)c2ccccc2)oc1C(=O)N[C@@H](CCCNC(=N)N)C(=O)O` [Compound 58, 2-Diphenylmethyl-4-methyl oxazole-5-carboxyl-Arg-OH]: the IC50 is 2900 nM on C3aR (setting [1]); 606 nM at C3a receptor (C3aR) (setting [4]); 603 nM on C3a receptor (C3aR) (setting [8]); 12 nM on C3a receptor (C3aR) (setting [2]); 606 nM at C3a receptor (C3aR) (setting [9]). Further, on C3aR (Table 12), the “Apparent Agonist Activity pEC50 ± SE (symbol)” value was “φ (compound showed no agonist activity up to 100 μM.)”. Further, the “-Log IC50” value on C3a receptor (C3aR) (setting [6]) is given as 7.0.

Take `Cc1oc([C@H](CC(C)C)NC(=O)c2cncc(Br)c2)nc1C(=O)N[C@@H](CCCNC(=N)N)C(=O)O` [Compound 48, 5-Bromonicotinic acid-Leucine-5-Methyl-Oxazole-Arginine]: the Emax at 10 µM on C3aR turned out to be 68%. Besides, at C3a receptor (C3aR), the remaining activity at 20 µM was 32%.

Take `COc1cccc(CC(=O)N[C@@H](CC(C)C)c2nc(C(=O)N[C@@H](CCCNC(=N)N)C(=O)O)c(C)o2)c1` [Compound 38, 3-Methoxy-phenylacetic acid-Leucine-5-Methyl-Oxazole-Arginin]: the Emax at 10 µM on C3aR was determined as 87%. On C3a receptor (C3aR), the remaining activity at 20 µM stood at 41%.

As for `Cc1oc([C@H](CC(C)C)NC(=O)c2cc3ccccc3s2)nc1C(=O)N[C@@H](CCCNC(=N)N)C(=O)O` [Compound 27, Benzothiophene-2-carboxylic acid-Leucine-5-Methyl-Oxazole-Arginin], the Emax at 10 µM on C3aR came to 62%. At C3a receptor (C3aR), the remaining activity at 20 µM was found to be 14%.
